Calls of active or inactive are those of the source. The rule behind the calls is not given here.
Experiments:
[1] = biological target: 4-amino-4-deoxychorismate synthase (Escherichia coli); assay: Inhibition of ADCS
[2] = system: 4-amino-4-deoxychorismate synthase ADCS/PabB (Escherichia coli); assay: Inhibition of ADCS

Ki [1]	Activity [2]	Structure (SMILES)
770 µM		Cc1ccc(C(=O)N[C@@H](CCCCNC(=O)c2cccc(OCC(=O)O)c2)C(=O)N[C@@H](Cc2cccc(Cl)c2)C(N)=O)c([N+](=O)[O-])c1O
1700 µM		Cc1ccc(C(=O)N[C@@H](CCCCNC(=O)c2cccc(OCC(=O)O)c2)C(=O)NCC(C(N)=O)C2CCCCC2)c([N+](=O)[O-])c1O (some centres undefined)
31000 µM		CC(=O)N[C@@H](CCCCNC(=O)c1cccc(OCC(=O)O)c1)C(N)=O
100000 µM		O=C(O)COc1ccc(C(=O)O)cc1
720 µM		COc1cccc(OC)c1C(=O)N[C@@H](CCCCNC(=O)c1cccc(OCC(=O)O)c1)C(=O)N[C@@H](Cc1ccc([N+](=O)[O-])c(O)c1)C(N)=O
	inactive	O=C(O)CCC1=CC(CCC(=O)O)CCC1=O (centres undefined)
360 µM		CC(C(=O)N[C@@H](CCCCNC(=O)c1cccc(OCC(=O)O)c1)C(=O)NCCc1cccc2c1oc1c(CCC(N)=O)cccc12)c1ccc([N+](=O)[O-])cc1 (some centres undefined)
13000 µM		O=C(O)CCNc1ccc(C(=O)O)cc1
540 µM		Cc1ccc(C(=O)N[C@@H](CCCCNC(=O)c2cccc(OCC(=O)O)c2)C(=O)N[C@@H](Cc2ccc(C#N)cc2)C(N)=O)c([N+](=O)[O-])c1O
3900 µM		NC(=O)C1(NC(=O)[C@H](CCCCNC(=O)c2cccc(OCC(=O)O)c2)NC(=O)c2ncccc2C(=O)c2ccccc2)CCCCC1
1100 µM		NC(=O)C1(NC(=O)[C@H](CCCCNC(=O)c2cccc(OCC(=O)O)c2)NC(=O)c2cc(O)cc(O)c2)CCCCC1
37000 µM		O=C(O)COc1cccc(C(=O)O)c1
32000 µM		NC(=O)c1cccc(OCC(=O)O)c1
2000 µM		O=C(O)c1ccc(=O)oc1
3000 µM		O=C(O)CNc1cc(C(=O)O)ccc1F
38000 µM		CC(=O)N[C@@H](CCCCNCc1cccc(OCC(=O)O)c1)C(N)=O
1400 µM		CC(C(=O)N[C@@H](CCCCNC(=O)c1cccc(OCC(=O)O)c1)C(=O)NCCc1cccc2c1oc1c(CCC(=O)NCCOCCOCCNC(=O)CCC(=O)N3CCN(CC(N)=O)CC3)cccc12)c1ccc([N+](=O)[O-])cc1 (some centres undefined)
1500 µM		Cc1ccc(C(=O)N[C@@H](CCCCNC(=O)c2cccc(OCC(=O)O)c2)C(=O)N[C@@H](Cc2cccc(Cl)c2)C(=O)NCCOCCOCCNC(=O)CCC(=O)N2CCN(CC(N)=O)CC2)c([N+](=O)[O-])c1O
710 µM		NC(=O)C1(NC(=O)[C@H](CCCCNC(=O)c2cccc(OCC(=O)O)c2)NC(=O)c2ccc(Oc3ccccc3)cc2)CCS(=O)(=O)CC1

From ChEMBL document CHEMBL1138215, “Aminodeoxychorismate synthase inhibitors from one-bead one-compound combinatorial libraries: "staged" inhibitor design” (J Med Chem, 2006)
